Laboratory results: patent US9650339B2, “Inhibitors of histone demethylases” (Gilead Sciences, Inc., priority 2013, dated 2017)

Tests used:
KDM2B (FBXL10) = biological target: T1, KDM2B (FBXL10) (Homo sapiens, UniProt Q8NHM5); experiment: Histone lysine demethylase AlphaLISA assay, KDM2B; assay type: biochemical; conditions: read-out: KDM2B HDME Inhibition IC50
T1 sequence (Q8NHM5 1-650): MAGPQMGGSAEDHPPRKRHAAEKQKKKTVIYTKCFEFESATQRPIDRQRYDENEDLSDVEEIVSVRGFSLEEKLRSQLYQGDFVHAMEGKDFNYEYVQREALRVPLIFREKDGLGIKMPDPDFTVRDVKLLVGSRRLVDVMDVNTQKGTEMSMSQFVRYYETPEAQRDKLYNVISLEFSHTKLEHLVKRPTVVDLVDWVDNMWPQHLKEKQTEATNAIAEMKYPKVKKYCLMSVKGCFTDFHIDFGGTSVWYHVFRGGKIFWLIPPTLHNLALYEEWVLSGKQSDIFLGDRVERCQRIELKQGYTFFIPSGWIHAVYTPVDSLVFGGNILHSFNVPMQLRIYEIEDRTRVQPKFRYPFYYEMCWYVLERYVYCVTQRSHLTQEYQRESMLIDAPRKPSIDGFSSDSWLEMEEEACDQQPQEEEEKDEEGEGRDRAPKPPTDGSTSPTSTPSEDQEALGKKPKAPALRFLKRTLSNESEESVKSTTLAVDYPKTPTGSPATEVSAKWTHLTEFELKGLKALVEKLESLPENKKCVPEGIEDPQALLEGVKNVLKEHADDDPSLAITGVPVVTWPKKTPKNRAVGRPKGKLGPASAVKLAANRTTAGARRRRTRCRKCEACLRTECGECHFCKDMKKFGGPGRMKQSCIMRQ
Procedure, shortened: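 AlphaLISA demethylation readout: enzyme preincubated 10 min, then 10 min with compounds in 3% DMSO buffer, before biotinylated methyl-lysine histone peptide substrate with 25 μM L-Asc and 10 μM α-KG, room temperature. Acceptor beads then streptavidin donor beads added, dark incubation, plates read.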

MCF7 cells = experiment: Cell proliferation assay MCF7; assay type: cell-based; conditions: MCF7 human breast cancer cells; 120 hours; ATPlite 1 Step
Procedure, shortened: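 After 120 h of compound exposure (duplicates, DMSO at most 0.5%) in DMEM GlutaMAX with 10% FBS, ATPlite 1 Step luminescence measured cellular ATP. Compound was added 24 h after seeding, at a density chosen for ~90% confluence at the end.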

| SMILES | IC50 (KDM2B (FBXL10)) [nM] | EC50 (MCF7 cells) [nM] |
| --- | --- | --- |
| CCN(CC)CCCCNCc1cc(CN)ccn1 [Compound 5, [2-({[4-(diethylamino)butyl]-amino}methyl)pyridin-4-yl]methanamine] | > 2500 | < 250 |
| CN(C)CCCCCNCc1cc(CN)ccn1 [Compound 8, [2-({[5-(dimethylamino)pentyl]-amino}methyl)pyridin-4-yl]methanamine] | > 2500 | < 250 |
| CN(C)C(=O)CNCc1cc(/C=N/CCCc2ccccc2)ccn1 [Compound 34, N,N-dimethyl-2-[({4-[[(3-phenylpropyl)imino]-methyl]pyridin-2-yl}methyl)amino]-acetamide] | > 2500 | > 2500 |
| CN(C)CCC/N=C/c1ccnc(CNCCCN(C)C)c1 [Compound 37, [3-(dimethylamino)propyl]-({4-[{[3-(dimethylamino)propyl]-imino}methyl]pyridin-2-yl}methyl)amine] | > 2500 | < 250 |
| C(=N/C1CC1)/c1ccnc(CNCCCN2CCCC2)c1 [Compound 42, N-{[2-({[3-(pyrrolidin-1-yl)propyl]amino}-methyl)pyridin-4-yl]methylidene}-cyclopropanamine] | > 2500 | < 250 |
| CCN(CC)CCCCNCc1cc(/C=N/CCOC)ccn1 [Compound 60, [4-(diethylamino)butyl]-({4-[[(2-methoxyethyl)imino]-methyl]pyridin-2-yl}methyl)amine] | > 2500 | < 250 |
| CCN(CCN(C)C)C(=O)CNCc1cc(/C=N/CCC2CCCCC2)ccn1 [Compound 63, 2-[({4-[[(2-cydohexylethyl)-imino]methyl]pyridin-2-yl}methyl)amino]-N-[2-(dimethylamino)-ethyl]-N-ethylacetamide] | 250 to 2500 | < 250 |
| CCN(CC)CCCCNCc1cc(C2NCCN2C)ccn1 (stereo not drawn) [Compound 65, [4-(diethylamino)-butyl]({[4-(1-methylimidazolidin-2-yl)pyridin-2-yl]methyl})amine] | > 2500 | < 250 |
| CCN(CCN(C)C)C(=O)CNCc1cc(/C=N/CCO)ccn1 [Compound 66] | > 2500 | < 250 |
| CN(Cc1ccccc1F)C(=O)CNCc1cc(/C=N/CCO)ccn1 [Compound 92, N-[(2-fluorophenyl)methyl]-2-[({4-[[(2-hydroxyethyl)imino]-methyl]pyridin-2-yl}methyl)amino]-N-methylacetamide] | > 2500 | > 2500 |
| OCC/N=C/c1ccnc(CNCCc2ccccc2OCc2ccccc2)c1 [Compound 93, 2-[({2-[({2-[2-(benzyloxy)phenyl]-ethyl}amino)methyl]-pyridin-4-yl}methylidene)-amino]ethan-1-ol] | > 2500 | > 2500 |
| CCN(CCC#N)C(=O)CNCc1cc(/C=N/CCO)ccn1 [Compound 94, N-(2-cyanoethyl)-N-ethyl-2-[({4-[[(2-hydroxyethyl)imino]-methyl]pyridin-2-yl}methyl)amino]-acetamide] | 250 to 2500 | > 2500 |
| CC(C)C[C@H](NCc1cc(/C=N/CCO)ccn1)C(=O)N1CCCCC1 [Compound 95, (2S)-2-[({4-[[(2-hydroxyethyl)imino]-methyl]pyridin-2-yl}methyl)amino]-4-methyl-1-(piperidin-1-yl)pentan-1-one] | > 2500 | > 2500 |
| CN(C)C/C=C/CNCc1cc(C=O)ccn1 [Compound 98, 2-({[(2E)-4-(dimethylamino)but-2-en-1-yl]amino}-methyl)pyridine-4-carbaldehyde] | > 2500 | < 250 |
| O=Cc1ccnc(CNCC(=O)N2CCC[C@@H]2CN2CCCC2)c1 [Compound 102, 2-[({2-oxo-2-[(2R)-2-(pyrrolidin-1-ylmethyl)pyrrolidin-1-yl]ethyl}amino)-methyl]pyridine-4-carbaldehyde] | > 2500 | 250 to 2500 |
